Data on eleven molecules can be found in ChEMBL document CHEMBL1909569 (Bioorg Med Chem Lett, 2011).

In general, MIC90 refers to the lowest concentration that inhibits either 90% of growth or 90% of the strains tested, depending on the study. As usually defined, the IC50 is the midpoint of a concentration-inhibition curve. As a reminder, the EC50 is the concentration that produces a half-maximal response.

For data set [1], the system named is Mycobacterium tuberculosis. In words: Antimicrobial activity against replicating Mycobacterium tuberculosis after 8 days by micro plate alamar blue assay. It is filed as functional. Conditions: 192 h; call rule not given here. On the technique in general: The colour change of resazurin is a common sign of viable cells or microbes.
For data set [2], the system named is Mycobacterium tuberculosis. In words: Antimicrobial activity against non-replicating Mycobacterium tuberculosis after 11 days by luminescence based low oxygen recovery assay. Conditions: 264 h. It counts as functional.
Data set [3] concerns the target T1, DNA-directed RNA polymerase subunit beta (Mycobacterium tuberculosis) (UniProt P9WGY9).
T1 sequence (whole entry): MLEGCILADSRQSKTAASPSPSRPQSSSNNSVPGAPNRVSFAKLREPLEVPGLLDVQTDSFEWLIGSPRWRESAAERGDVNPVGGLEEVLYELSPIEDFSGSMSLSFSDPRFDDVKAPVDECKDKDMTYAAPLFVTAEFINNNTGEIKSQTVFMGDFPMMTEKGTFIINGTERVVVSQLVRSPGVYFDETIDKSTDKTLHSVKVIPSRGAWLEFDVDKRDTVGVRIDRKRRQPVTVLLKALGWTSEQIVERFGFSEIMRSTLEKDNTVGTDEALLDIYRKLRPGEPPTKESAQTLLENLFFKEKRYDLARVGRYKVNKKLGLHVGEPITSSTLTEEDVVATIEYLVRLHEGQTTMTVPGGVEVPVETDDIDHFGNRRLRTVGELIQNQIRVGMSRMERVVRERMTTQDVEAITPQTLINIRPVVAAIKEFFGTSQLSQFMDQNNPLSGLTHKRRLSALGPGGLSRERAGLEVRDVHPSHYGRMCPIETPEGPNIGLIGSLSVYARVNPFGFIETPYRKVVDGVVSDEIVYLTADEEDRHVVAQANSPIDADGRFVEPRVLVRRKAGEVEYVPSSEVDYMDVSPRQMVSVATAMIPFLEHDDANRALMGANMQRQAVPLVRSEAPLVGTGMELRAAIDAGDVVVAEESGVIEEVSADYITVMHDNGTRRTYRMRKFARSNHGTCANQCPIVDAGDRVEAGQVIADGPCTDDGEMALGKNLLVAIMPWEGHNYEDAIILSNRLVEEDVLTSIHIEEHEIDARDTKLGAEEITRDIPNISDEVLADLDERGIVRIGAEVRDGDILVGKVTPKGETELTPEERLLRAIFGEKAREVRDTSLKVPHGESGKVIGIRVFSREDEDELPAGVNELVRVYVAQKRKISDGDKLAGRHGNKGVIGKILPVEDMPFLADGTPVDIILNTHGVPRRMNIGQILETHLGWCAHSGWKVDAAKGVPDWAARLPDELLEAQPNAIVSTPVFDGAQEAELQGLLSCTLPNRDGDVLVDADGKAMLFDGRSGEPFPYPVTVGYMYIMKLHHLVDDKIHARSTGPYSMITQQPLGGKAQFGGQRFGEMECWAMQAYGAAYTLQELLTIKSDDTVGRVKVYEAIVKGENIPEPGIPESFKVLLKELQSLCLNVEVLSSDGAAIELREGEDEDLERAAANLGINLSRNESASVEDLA
The data set can be described thus: (§1) Inhibition of wild type Mycobacterium tuberculosis RNA polymerase after 10 mins using ribo green staining by rolling circle transcription assay. Also on record: unit not given here.

Data set [4] concerns the target T2, DNA-directed RNA polymerase subunit beta (Mycobacterium tuberculosis, UniProt P9WGY9).
T2 sequence (P9WGY9 whole entry): T1 sequence (whole entry)
Described as §1.

The test system of data set [5] is Escherichia coli. In words: Antimicrobial activity against wild type Escherichia coli TG2 after 16 to 20 hrs. It is filed as functional.
For data set [6], the system named is Escherichia coli. In words: Antimicrobial activity against wild type Escherichia coli DH5[alpha] after 16 to 20 hrs. It counts as functional.
Data set [7] relates to Escherichia coli. The data set can be described thus: Antimicrobial activity against Escherichia coli EC2880 mutant after 16 to 20 hrs. It counts as functional.
In data set [8] the target is T3, Nuclear receptor subfamily 1 group I member 2 (Homo sapiens, UniProt O75469).
T3 sequence (O75469 whole entry): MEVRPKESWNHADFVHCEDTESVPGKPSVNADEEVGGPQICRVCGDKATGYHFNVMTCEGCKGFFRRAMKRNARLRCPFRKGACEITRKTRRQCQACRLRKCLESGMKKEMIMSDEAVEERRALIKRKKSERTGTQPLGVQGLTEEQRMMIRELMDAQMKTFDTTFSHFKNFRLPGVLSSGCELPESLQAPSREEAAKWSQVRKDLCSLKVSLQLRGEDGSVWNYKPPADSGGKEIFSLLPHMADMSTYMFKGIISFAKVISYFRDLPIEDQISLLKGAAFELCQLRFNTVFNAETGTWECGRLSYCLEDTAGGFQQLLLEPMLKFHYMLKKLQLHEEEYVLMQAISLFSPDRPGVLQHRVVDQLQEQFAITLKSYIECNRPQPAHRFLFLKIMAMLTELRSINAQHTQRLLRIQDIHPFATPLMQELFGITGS
In words: Activation of human PXR in DPX2 cells up to 100 uM after 24 hrs by microplate reader relative to control. It counts as ADME, cell-based.

The target in data set [9] is T3, Nuclear receptor subfamily 1 group I member 2. The data set can be described thus: (§2) Activation of human PXR in DPX2 cells after 24 hrs by microplate reader relative to control. It is filed as ADME, cell-based.
The target in data set [10] is T4, PXR (nuclear receptor subfamily 1 group I member 2) (Homo sapiens, UniProt O75469).
T4 sequence (O75469 whole entry): T3 sequence (O75469 whole entry)
The description is as §2. As to conditions: human, DPX2 cells; read-out: FC. It counts as ADME, cell-based.

For data set [11], the target named is T1, DNA-directed RNA polymerase subunit beta (Mycobacterium tuberculosis). The data set can be described thus: Ratio of compound IC50 to Rifamycin S IC50 for wild type Mycobacterium tuberculosis RNA polymerase.

The structures appear in SMILES notation. ≈ marks a conversion by molar mass, not a printed value.

As to `CO[C@H]1/C=C/O[C@@]2(C)Oc3c(C)c(O)c4c(c3C2=O)C(=O)C(/C=N/N2CCN(C)CC2)=C(NC(=O)/C(C)=C\C=C\[C@H](C)[C@H](O)[C@@H](C)[C@@H](O)[C@@H](C)[C@H](OC(C)=O)[C@@H]1C)C4=O` [RIFAMPIN S], the MIC90 in data set [1] worked out at 0.07 µM (≈ 0.0575 µg/mL); in [2], 0.5 µM (≈ 0.41 µg/mL); against Escherichia coli [5] it was 12.5 µM (≈ 10.3 µg/mL); with Escherichia coli [6] it was 25 µM (≈ 20.5 µg/mL); with Escherichia coli [7] it was 0.1 µM (≈ 0.0821 µg/mL). In data set [3], this molecule returned a logIC50 of -1.88. In [4], this molecule displayed an IC50 of 13 nM.

Take `CO[C@H]1/C=C/O[C@@]2(C)Oc3c(C)c(O)c4c(c3C2=O)C(=O)C=C(NC(=O)/C(C)=C\C=C\[C@H](C)[C@H](O)[C@@H](C)[C@@H](O)[C@@H](C)[C@H](OC(C)=O)[C@@H]1C)C4=O` [RIFAMYCIN S]: the MIC90 is 0.03 µM (≈ 0.0209 µg/mL) in data set [1]; 0.4 µM (≈ 0.278 µg/mL) in [2]; 100 µM (≈ 69.6 µg/mL) in the data set with Escherichia coli [5]; more than 100 µM in the data set on Escherichia coli [6]; 0.78 µM (≈ 0.543 µg/mL) in the data set on Escherichia coli [7]. In data set [4], the IC50 is less than 10 nM.

`CO[C@H]1/C=C/O[C@@]2(C)Oc3c(c4c5c(nn(CCO)c5c3C)C(=C(/C=N/N3CCN(C)CC3)C4=O)NC(=O)/C(C)=C\C=C\[C@H](C)[C@H](O)[C@@H](C)[C@@H](O)[C@@H](C)[C@H](OC(C)=O)[C@@H]1C)C2=O`: the MIC90 in data set [1] is 3.9 µM (≈ 3.36 µg/mL); in data set [2] it was more than 18.6 µM; against Escherichia coli [5], more than 100 µM; in the data set with Escherichia coli [6], more than 100 µM; against Escherichia coli [7] it was more than 12.5 µM. This molecule also returned a logIC50 in [3] of -0.856. For the same molecule, in [4], the IC50 was 139 nM.

Regarding `CO[C@H]1/C=C/O[C@@]2(C)Oc3c(C)c(N(C)C)c4c(c3C2=O)C(=O)C=C(NC(=O)/C(C)=C\C=C\[C@H](C)[C@H](O)[C@@H](C)[C@@H](O)[C@@H](C)[C@H](OC(C)=O)[C@@H]1C)C4=O`, the MIC90 in [1] was 1.8 µM (≈ 1.3 µg/mL); in data set [2], 5.4 µM (≈ 3.9 µg/mL); against Escherichia coli [5], more than 100 µM; with Escherichia coli [6], more than 100 µM; against Escherichia coli [7] it was 12.5 µM (≈ 9.04 µg/mL). Also, the logIC50 in [3] was -0.298. The molecule further registered an IC50 in data set [4] of 503 nM.

In the case of `CO[C@H]1/C=C/O[C@@]2(C)Oc3c(c4c5c(nn(C)c5c3C)C(=C(/C=N/N3CCN(C)CC3)C4=O)NC(=O)/C(C)=C\C=C\[C@H](C)[C@H](O)[C@@H](C)[C@@H](O)[C@@H](C)[C@H](OC(C)=O)[C@@H]1C)C2=O`, the MIC90 was more than 4.8 µM in [1] and more than 19.3 µM in data set [2]. Besides, the EC50 entry in data set [8] is given as “Not Active”.

For the molecule `CO[C@H]1/C=C/O[C@@]2(C)Oc3c(C)c(NC4CCCCCC4)c4c(c3C2=O)C(=O)C=C(NC(=O)/C(C)=C\C=C\[C@H](C)[C@H](O)[C@@H](C)[C@@H](O)[C@@H](C)[C@H](OC(C)=O)[C@@H]1C)C4=O`, the MIC90 in [1] is 2.2 µM (≈ 1.74 µg/mL); in [2], more than 20.2 µM; against Escherichia coli [5] it was more than 100 µM; in the data set with Escherichia coli [6], more than 100 µM; against Escherichia coli [7], more than 12.5 µM. The molecule also had a logIC50 in data set [3] of 1.19. Also, the IC50 in data set [4] was found to be 15400 nM.

For the molecule `CO[C@H]1/C=C/O[C@@]2(C)Oc3c(C)c(N)c4c(c3C2=O)C(=O)C=C(NC(=O)/C(C)=C\C=C\[C@H](C)[C@H](O)[C@@H](C)[C@@H](O)[C@@H](C)[C@H](OC(C)=O)[C@@H]1C)C4=O`, the MIC90 was 1.41 µM (≈ 0.98 µg/mL) in data set [1]; 22.2 µM (≈ 15.4 µg/mL) in data set [2]; more than 100 µM in the data set on Escherichia coli [5]; more than 100 µM with Escherichia coli [6]; 12.5 µM (≈ 8.68 µg/mL) against Escherichia coli [7]. The logIC50 in data set [3] was determined as 0.644. Besides, half-maximal inhibition in [4] (IC50) required 4400 nM.

On to `CNc1c(C)c2c3c4c(O)c(/C=N/N5CCN(C)CC5)c(c(O)c14)NC(=O)/C(C)=C\C=C\[C@H](C)[C@H](O)[C@@H](C)[C@@H](O)[C@@H](C)[C@H](OC(C)=O)[C@H](C)[C@@H](OC)/C=C/O[C@@](C)(O2)C3=O`, for which the MIC90 in data set [1] was 4 µM (≈ 3.34 µg/mL); in data set [2], more than 19.1 µM. In data set [9], this molecule yielded an EC50 of 4100 nM. The fold induction at 24 h in [10] came out at 8.9.

With `CNc1c(C)c2c3c4c1C(=O)C(=C(/C=N/N1CCN(C)CC1)C4=O)NC(=O)/C(C)=C\C=C\[C@H](C)[C@H](O)[C@@H](C)[C@@H](O)[C@@H](C)[C@H](OC(C)=O)[C@H](C)[C@@H](OC)/C=C/O[C@@](C)(O2)C3=O`, the values for the MIC90 in [1] and in [2] were 3.64 µM (≈ 3.04 µg/mL) and more than 19.2 µM, respectively. For the same molecule, the response in [9] was half-maximal at 2100 nM (EC50). Further, the fold induction at 24 h in [10] was 6.9.

`CO[C@H]1/C=C/O[C@@]2(C)Oc3c(C)c(OS(=O)(=O)c4ccc(C)cc4)c4c(c3C2=O)C(=O)C=C(NC(=O)/C(C)=C\C=C\[C@H](C)[C@H](O)[C@@H](C)[C@@H](O)[C@@H](C)[C@H](OC(C)=O)[C@@H]1C)C4=O`: the MIC90 in data set [1] was 0.2 µM (≈ 0.17 µg/mL); in data set [2] it was 3 µM (≈ 2.55 µg/mL); in the data set with Escherichia coli [5] it was more than 100 µM; against Escherichia coli [6], more than 100 µM; with Escherichia coli [7], 3.12 µM (≈ 2.66 µg/mL). In [3], this molecule registered a logIC50 of -1.68. The molecule also returned an IC50 in [4] of 21 nM. In data set [11], the Ratio IC50 was found to be 2.

Consider `CO[C@H]1/C=C/O[C@@]2(C)Oc3c(C)c(SC)c4c(c3C2=O)C(=O)C=C(NC(=O)/C(C)=C\C=C\[C@H](C)[C@H](O)[C@@H](C)[C@@H](O)[C@@H](C)[C@H](OC(C)=O)[C@@H]1C)C4=O`, for which the MIC90 in [1] was 2 µM (≈ 1.45 µg/mL); in data set [2] it was 1.3 µM (≈ 0.944 µg/mL); against Escherichia coli [5], more than 100 µM; with Escherichia coli [6], more than 100 µM; against Escherichia coli [7], more than 12.5 µM. The molecule also displayed a logIC50 in data set [3] of -1.82. The molecule also showed an IC50 in data set [4] of 15 nM.
